Converted amounts (≈) assume the structure as drawn.
What follows are molecules tested on KB (assay: Cytotoxicity against human KB cells). Details: read-out: ED50 (the source's name).
Format: functional

| Structure (SMILES) | EC50 [µg/mL] |
| --- | --- |
| C=C1CC(CCCC2CC(=C)C(=O)O2)OC1=O (stereo not drawn) | 4 (≈ 16.9 µM) |
| C=C(C)C(=O)O[C@H]1CC2=C[C@@H](C[C@@]3(C)O[C@@H]3[C@H]3OC(=O)C(=C)[C@@H]31)OC2=O [ELEPHANTOPIN] | 1 (≈ 2.77 µM) |
| O=C1OCC/C1=C\OC(=O)c1ccccc1 | 100 (≈ 458 µM) |
| C=C1C(=O)O[C@@H]2[C@@H]3[C@H](C[C@H]12)[C@@H]1C=C[C@@H]3C1 | 1 (≈ 4.94 µM) |
| O=C1OCC/C1=C\CCC/C=C1\CCOC1=O | > 100 |
| C=C1C(=O)O[C@@H]2CCCC[C@@H]12 (relative stereo) | 38 (≈ 250 µM) |
| C=C1CCOC1=O [TULIPALINE A] | 16 (≈ 163 µM) |
| O=C1OCC/C1=C\OCCCO/C=C1\CCOC1=O | > 100 |

Source: ChEMBL document CHEMBL3244239, “Potential antitumor agents. Synthesis, reactivity, and cytoxicity of alpha-methylene carbonyl compounds” (1978)
